Where a name gives a salt, the structure may show the parent alone. The source made the active and inactive calls.

Assay [1] addresses Photoreceptor-specific nuclear receptor (Homo sapiens, UniProt Q9Y5X4). The assay is classed as functional, cell-based.
The target of assay [2] is T1, Cysteine protease ATG4B (Homo sapiens, UniProt Q9Y4P1).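 Also: Fluorescence-based dose-response confirmation assay measuring inhibition of ATG4B activity.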
T1 sequence (Q9Y4P1 whole entry): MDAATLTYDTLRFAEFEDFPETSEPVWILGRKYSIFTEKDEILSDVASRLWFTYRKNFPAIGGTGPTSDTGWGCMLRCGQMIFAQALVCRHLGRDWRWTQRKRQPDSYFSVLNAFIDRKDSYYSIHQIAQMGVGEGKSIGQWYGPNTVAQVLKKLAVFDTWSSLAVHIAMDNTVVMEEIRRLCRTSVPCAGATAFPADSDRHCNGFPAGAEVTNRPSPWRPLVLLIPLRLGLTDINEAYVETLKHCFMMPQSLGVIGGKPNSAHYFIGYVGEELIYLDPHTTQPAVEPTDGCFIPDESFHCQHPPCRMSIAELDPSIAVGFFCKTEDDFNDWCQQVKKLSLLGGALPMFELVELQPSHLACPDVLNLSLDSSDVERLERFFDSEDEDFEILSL
In kind it is functional.

Assay [3] concerns the target Phospholipase A2 (Homo sapiens, UniProt P04054). The assay is classed as functional.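 Also: confirmatory dose-response counterscreen on phospholipase A2, testing hits that came from an ultra-high-throughput screen for ATG4B inhibitors.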
The target in assay [4] is Melanocortin receptor 4 (Homo sapiens, UniProt P32245). Description: inhibitors of MC4R cAMP signaling – cell-based, TR-FRET, biased antagonists, dose response (AID 602298).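 Also: antagonist potency against agonist-stimulated cAMP production.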 In kind it is functional.
Assay [5] in a line: cAMP pathway inhibition in counterscreen cell line – TR-FRET cAMP detection, counter-screen for MC4R biased antagonist project, dose response (AID 602305).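 Also: U2OS cells stimulated with forskolin near its EC80 as the cAMP inducer; potency is for inhibition of forskolin-stimulated cAMP signaling.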 The assay is classed as functional, cell-based.
The target in assay [6] is Beta-2 adrenergic receptor (Homo sapiens, UniProt P07550). Put plainly: ADRB2 activation measured by internalization – cell-based, FAP fluorogen, flow cytometry, cherry pick 1, dose response (AID 588763). The assay is classed as functional.
Assay [7] has as its target Protein Wnt-3a (Mus musculus, UniProt P27467). Description: antagonism of Wnt3a pathway luciferase reporter – Wnt-LIGHT cells, luminescence, selectivity assay for Gli-SUFU antagonist project, dose response (AID 651570).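 Also: Wnt-LIGHT reporter cells stimulated with conditioned medium from Wnt3a-producing cells.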 The following applies: read-out: IC50_Mean. The assay is classed as functional.
The test system of assay [8] is INS1. Description: INS-1E survival protection against cytokine death – cell-based, luminescence, retest, dose response (AID 449756).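 Also: cell death triggered by IL-1 beta plus TNF-alpha plus IFN-gamma mixture; protective hits raise ATP signal compared with cytokine alone wells.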 In kind it is functional. The following applies: Rattus norvegicus.
Assay [9] concerns the target T2, Galanin receptor type 3 (Homo sapiens, UniProt O60755).
T2 sequence (O60755 whole entry): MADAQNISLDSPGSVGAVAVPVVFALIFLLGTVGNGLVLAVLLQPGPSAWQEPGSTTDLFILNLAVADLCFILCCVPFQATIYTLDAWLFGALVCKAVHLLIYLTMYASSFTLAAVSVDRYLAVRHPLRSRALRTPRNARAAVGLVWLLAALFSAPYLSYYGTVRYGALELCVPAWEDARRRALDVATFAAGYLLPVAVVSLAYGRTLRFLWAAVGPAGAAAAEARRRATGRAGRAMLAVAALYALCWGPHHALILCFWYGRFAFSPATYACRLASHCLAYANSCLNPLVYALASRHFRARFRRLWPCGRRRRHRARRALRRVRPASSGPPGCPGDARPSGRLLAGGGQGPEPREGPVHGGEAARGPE
Description: Fluorescence-based cell-based primary high throughput dose response assay to identify antagonists of the Galanin Receptor 3 (GalR3). The assay is classed as functional.

In assay [10] the target is T3, Short transient receptor potential channel 4 (Mus musculus, UniProt Q9QUQ5).
T3 sequence (Q9QUQ5 whole entry): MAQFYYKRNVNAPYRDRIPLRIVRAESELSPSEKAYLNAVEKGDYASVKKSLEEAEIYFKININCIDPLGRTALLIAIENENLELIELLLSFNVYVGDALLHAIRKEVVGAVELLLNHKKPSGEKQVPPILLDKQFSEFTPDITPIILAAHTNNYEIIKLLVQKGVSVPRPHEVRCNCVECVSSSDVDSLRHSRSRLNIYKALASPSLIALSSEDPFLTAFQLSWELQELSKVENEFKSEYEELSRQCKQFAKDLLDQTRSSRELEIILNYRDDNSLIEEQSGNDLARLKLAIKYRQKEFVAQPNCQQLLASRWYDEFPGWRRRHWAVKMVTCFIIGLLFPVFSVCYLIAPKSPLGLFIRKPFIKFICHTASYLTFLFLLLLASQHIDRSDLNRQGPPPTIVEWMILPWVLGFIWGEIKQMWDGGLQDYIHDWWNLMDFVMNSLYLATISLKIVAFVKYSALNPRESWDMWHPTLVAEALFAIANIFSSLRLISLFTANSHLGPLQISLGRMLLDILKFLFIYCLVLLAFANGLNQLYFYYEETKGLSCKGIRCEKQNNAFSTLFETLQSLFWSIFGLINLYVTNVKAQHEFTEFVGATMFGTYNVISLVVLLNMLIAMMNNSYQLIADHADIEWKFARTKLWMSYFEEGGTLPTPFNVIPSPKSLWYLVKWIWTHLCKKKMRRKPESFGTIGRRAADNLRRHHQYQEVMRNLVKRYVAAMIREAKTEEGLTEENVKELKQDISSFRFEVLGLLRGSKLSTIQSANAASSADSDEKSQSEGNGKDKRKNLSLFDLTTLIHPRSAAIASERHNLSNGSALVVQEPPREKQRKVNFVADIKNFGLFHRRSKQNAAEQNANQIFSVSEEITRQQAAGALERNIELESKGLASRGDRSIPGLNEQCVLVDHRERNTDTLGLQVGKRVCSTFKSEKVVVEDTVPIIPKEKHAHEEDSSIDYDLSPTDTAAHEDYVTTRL
Description: block of DAMGO-driven TRPC4 calcium entry – cell-based, HEK293 TRPC4/mu-opioid, Fluo-4 calcium, dose response (AID 434942).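 Also: potency of inhibitors blocking the TRPC4 calcium response.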 In kind it is functional.

Assay [11] is described as follows: cells. In kind it is functional, cell-based. The following applies: HEK-CNG.
Assay [12] has as its target T4, COUP transcription factor 2 (Homo sapiens, UniProt P24468).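 Also: HEK293 cells transiently cotransfected with COUP-TFII expression vector and reporter; luciferase reporter luminescence driven by COUP-TFII from the pX2-168 reporter plasmid.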
T4 sequence (P24468 whole entry): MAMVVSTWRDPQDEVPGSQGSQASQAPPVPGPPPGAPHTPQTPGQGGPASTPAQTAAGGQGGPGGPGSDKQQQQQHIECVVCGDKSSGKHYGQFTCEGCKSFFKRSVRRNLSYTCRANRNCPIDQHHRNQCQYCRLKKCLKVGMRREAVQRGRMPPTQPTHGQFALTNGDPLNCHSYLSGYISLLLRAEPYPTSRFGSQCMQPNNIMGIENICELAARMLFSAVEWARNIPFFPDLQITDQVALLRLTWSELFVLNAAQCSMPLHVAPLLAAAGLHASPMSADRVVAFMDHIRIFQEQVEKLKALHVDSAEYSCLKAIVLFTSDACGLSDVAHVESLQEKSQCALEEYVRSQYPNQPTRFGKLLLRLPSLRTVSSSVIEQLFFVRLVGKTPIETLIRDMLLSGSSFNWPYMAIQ
Description: Luminescence-based cell-based high throughput dose response assay to identify inhibitors of COUP-TFII (NR2F2). In kind it is functional.

Assay [13] in a line: bead-based luminescence quenchers, dual-tagged ARNT – biochemical, AlphaScreen, cherry-pick, artefact control for ARNT-TACC3 interaction inhibitor project, dose response (AID 651705).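 Also: AlphaScreen bead proximity signal that flags compounds interfering with the detection technology; potency reflects signal decrease which marks the compound as an assay artifact.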 The assay is classed as functional.
For assay [14], the target named is T5, High affinity choline transporter 1 (Homo sapiens, UniProt Q9GZV3).
T5 sequence (Q9GZV3 whole entry): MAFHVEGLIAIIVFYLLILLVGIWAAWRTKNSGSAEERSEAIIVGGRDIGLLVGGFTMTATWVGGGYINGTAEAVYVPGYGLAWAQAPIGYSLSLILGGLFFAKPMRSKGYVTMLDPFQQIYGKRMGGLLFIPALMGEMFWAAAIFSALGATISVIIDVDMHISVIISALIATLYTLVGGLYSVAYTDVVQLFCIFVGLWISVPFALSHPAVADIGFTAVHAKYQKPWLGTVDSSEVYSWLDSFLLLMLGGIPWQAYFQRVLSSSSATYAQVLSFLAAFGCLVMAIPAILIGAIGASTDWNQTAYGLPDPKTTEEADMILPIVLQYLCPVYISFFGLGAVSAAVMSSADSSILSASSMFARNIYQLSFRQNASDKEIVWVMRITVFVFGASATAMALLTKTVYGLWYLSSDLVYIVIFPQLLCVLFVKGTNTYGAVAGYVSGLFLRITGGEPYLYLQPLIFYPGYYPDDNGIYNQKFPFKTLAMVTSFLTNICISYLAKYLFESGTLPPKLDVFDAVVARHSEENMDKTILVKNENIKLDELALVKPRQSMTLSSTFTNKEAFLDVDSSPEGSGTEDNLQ
Description: human choline transporter blockers, potency – cell-based, 5-point CRC, membrane potential dye, dose response (AID 504840). In kind it is functional.

Assay [15] has as its system H9c2. Put plainly: cells. The following applies: Rattus norvegicus, H9c2, Myocardium. In kind it is functional, cell-based.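 Also: confirmatory concentration-response retest of ultra-high-throughput screening hits for modulation of myocardial damage; cell death induced by hydrogen peroxide oxidative stress; compound pretreatment for 60 min then peroxide exposure for 2 h; potency is for protecting the cells against peroxide damage rather than for killing them.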
The target of assay [16] is Dual specificity tyrosine-phosphorylation-regulated kinase 1A (Rattus norvegicus, UniProt Q63470). In kind it is biochemical, Homo sapiens.
For assay [17], the target named is DNA repair and recombination protein RAD54-like (Homo sapiens, UniProt Q92698). Description: RAD54 Holliday junction migration blockers – biochemical, fluorescence, cherry-picked samples, dose series, confirmation (AID 651657). The assay is classed as functional.
Assay [18] concerns the target T6, Rac GTPase-activating protein 1 (Homo sapiens, UniProt Q9H0H5).
T6 sequence (Q9H0H5 whole entry): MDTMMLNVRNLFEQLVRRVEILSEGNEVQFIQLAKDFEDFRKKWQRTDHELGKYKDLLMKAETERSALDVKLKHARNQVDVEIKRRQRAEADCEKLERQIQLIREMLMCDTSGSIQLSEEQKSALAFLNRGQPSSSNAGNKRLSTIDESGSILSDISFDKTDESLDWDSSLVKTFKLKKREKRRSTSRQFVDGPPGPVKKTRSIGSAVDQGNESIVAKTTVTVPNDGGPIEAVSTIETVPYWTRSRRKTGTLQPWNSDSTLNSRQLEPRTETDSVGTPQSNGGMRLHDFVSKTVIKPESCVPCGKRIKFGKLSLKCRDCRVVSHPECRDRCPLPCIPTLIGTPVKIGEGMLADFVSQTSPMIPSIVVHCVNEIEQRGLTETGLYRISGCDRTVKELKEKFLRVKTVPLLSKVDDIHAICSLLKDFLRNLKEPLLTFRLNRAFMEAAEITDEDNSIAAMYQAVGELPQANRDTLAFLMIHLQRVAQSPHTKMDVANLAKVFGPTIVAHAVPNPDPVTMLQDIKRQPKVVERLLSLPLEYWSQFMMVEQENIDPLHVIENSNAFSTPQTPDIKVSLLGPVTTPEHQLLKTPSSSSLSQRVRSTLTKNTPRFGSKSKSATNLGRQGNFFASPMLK
Put plainly: blockers of MgcRacGAP-driven Rac1 GTP hydrolysis – biochemical, ADP Hunter fluorescence, primary and confirmatory, confirmation (AID 624330). The assay is classed as functional.

Chain of Beta-2 adrenergic receptor (P07550 whole entry): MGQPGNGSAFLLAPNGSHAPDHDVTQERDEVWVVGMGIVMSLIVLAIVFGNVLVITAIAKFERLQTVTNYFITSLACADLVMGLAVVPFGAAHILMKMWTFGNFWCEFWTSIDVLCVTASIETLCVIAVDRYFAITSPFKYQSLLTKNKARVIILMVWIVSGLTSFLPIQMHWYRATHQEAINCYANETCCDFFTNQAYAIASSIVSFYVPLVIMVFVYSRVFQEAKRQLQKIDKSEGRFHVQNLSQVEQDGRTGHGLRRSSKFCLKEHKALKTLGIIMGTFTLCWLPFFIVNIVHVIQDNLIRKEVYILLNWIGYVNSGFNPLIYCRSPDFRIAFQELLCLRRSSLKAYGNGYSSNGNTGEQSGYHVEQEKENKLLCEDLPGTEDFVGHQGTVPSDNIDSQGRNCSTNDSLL
Chain of Phospholipase A2 (P04054 whole entry): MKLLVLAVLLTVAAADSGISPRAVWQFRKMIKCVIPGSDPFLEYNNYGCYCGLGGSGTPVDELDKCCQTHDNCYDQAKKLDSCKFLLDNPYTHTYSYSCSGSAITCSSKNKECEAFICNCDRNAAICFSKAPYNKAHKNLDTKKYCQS
Chain of Protein Wnt-3a (P27467 whole entry): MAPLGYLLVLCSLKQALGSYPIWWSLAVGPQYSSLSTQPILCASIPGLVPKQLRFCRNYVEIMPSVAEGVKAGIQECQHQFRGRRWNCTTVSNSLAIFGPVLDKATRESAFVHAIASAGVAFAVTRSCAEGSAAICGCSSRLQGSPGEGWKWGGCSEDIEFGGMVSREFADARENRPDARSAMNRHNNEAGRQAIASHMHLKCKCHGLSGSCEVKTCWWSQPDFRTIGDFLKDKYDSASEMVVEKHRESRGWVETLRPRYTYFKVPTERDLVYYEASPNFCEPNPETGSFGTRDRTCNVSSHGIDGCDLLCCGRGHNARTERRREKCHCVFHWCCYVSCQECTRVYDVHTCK
Chain of Melanocortin receptor 4 (P32245 whole entry): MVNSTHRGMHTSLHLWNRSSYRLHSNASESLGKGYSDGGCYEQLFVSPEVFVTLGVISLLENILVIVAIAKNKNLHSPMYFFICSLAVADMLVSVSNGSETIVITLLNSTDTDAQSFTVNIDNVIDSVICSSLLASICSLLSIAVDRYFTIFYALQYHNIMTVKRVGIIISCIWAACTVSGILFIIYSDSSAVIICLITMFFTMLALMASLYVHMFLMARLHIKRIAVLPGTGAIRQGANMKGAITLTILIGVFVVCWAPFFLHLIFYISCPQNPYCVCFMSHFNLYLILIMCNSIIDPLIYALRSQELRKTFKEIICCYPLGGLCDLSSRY
Chain of Photoreceptor-specific nuclear receptor (Q9Y5X4 whole entry): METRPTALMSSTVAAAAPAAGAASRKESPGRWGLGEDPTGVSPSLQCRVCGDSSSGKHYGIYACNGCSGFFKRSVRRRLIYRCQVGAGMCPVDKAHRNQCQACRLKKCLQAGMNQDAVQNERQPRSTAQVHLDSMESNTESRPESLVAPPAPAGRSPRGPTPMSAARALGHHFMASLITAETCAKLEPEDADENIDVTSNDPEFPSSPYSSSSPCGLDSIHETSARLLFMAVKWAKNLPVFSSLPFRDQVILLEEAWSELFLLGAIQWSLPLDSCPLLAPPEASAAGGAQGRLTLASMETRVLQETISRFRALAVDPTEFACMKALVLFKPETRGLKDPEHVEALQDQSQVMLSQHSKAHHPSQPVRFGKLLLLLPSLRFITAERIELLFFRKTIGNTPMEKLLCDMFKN
Chain of DNA repair and recombination protein RAD54-like (Q92698 whole entry): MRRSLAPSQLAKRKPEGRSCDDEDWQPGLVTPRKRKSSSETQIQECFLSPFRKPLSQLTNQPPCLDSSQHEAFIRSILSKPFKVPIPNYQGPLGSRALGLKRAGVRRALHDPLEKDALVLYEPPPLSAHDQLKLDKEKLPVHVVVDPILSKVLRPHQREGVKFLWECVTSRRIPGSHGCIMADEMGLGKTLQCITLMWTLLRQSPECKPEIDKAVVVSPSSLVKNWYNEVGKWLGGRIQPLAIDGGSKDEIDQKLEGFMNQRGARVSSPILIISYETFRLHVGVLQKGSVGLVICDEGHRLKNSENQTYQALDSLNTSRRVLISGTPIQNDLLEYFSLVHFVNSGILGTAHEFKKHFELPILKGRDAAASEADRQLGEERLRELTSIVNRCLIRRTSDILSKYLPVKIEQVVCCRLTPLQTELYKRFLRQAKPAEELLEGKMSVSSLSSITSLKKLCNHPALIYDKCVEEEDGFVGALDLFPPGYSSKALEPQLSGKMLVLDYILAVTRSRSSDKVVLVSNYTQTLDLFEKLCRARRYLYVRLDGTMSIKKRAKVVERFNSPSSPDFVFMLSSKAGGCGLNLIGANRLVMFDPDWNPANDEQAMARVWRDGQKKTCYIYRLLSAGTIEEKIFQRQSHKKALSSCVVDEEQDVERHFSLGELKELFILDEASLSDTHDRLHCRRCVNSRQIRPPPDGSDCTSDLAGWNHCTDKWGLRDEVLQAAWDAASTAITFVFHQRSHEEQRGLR

Turning to `CC(C)(C)c1ccc(CSc2nc(N)cc(O)n2)cc1`, the IC50 in assay [1] is 5.21 µM (active).
As to `Nc1c(N2CCN(c3ccccc3)CC2)c2ccccc2oc1=O`, the IC50 in assay [2] was 20.4 µM (inactive); in assay [3], 12.9 µM (active).
For the compound `COc1ccc(CC(=O)Oc2ccc(F)c(F)c2)cc1S(=O)(=O)N1CCOCC1`, the IC50 in assay [4] and in assay [5] was > 64.6 µM (inactive) in each case.
With `CCCCC(=O)Nc1ccc(C(=O)N(CC)c2ccccc2C)cc1`, the EC50 in assay [6] was 17.5 µM (inactive).
Same read-out and setting: as for `CC1=C(C#N)C(c2cn(-c3ccccc3)nc2-c2cccs2)C(C#N)=C(C)N1`, the figure is 0.327 µM (inactive).
`Cc1nc2ccccc2n1Cc1ccc(Br)cc1`: the results for the IC50 in assay [7], in assay [9] and in [12] were 369 nM (active), 140 nM (active) and 4.4 µM (active), respectively. In [8], the AC50 was 2.84 µM (active). The EC50 in assay [10] was 668 nM (active); in assay [11], > 29.9 µM (inactive).
Consider `O=C(NCCCn1ccnc1)C(=O)NCC1OCCN1S(=O)(=O)c1ccc2c(c1)OCCO2` (centres undefined), for which, in [13], the half-maximal activity concentration (AC50) is 89.6 µM (active).
In the case of `Cc1cccc(/N=C/c2cc(Br)cc(Cl)c2O)c1`, the IC50 in [14] was 13.3 µM (active); in assay [2] it was 8.52 µM (active); in assay [3] it was 12.1 µM (active); in assay [15], > 79 µM (inactive).
Consider `CSCC[C@H](NC(=O)OC(C)(C)C)C(=O)N/N=C/c1cccc2cccnc12`, for which the AC50 in assay [13] is 132 µM (active). The IC50 in assay [15] is > 79 µM (inactive).
As for `CNCC(O)c1ccc(OC(=O)C(C)(C)C)c(OC(=O)C(C)(C)C)c1` (centres undefined) [DIPIVEFRIN HYDROCHLORIDE], in assay [6], the concentration for a half-maximal effect (EC50) was 7.13 µM (active).
With `Cc1[nH]ccc2c1[nH]c1cc(=O)ccc12` [HARMOL], the values for the AC50 in [16] and in assay [17] were 298 nM (active) and 23.9 µM (active), respectively. For the same compound, the IC50 in assay [18] was 44.9 µM (active).

(Values after ChEMBL document CHEMBL1201862, “PubChem BioAssay data set” (2004).)
